Source: PubChem BioAssay AID485280 (The Scripps Research Institute Molecular Screening Center, 2010)
The source made the active and inactive calls.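 The calls were made as follows: active = CC50 of 24 µM or less, the dose killing half of Huh-7.5 liver cells, showing toxicity to them; inactive = no cytotoxicity, CC50 exceeds 24 µM.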

The molecules below were run on Huh-7.5 viability, XTT absorbance (assay: Huh-7.5 cell viability reduction – absorbance, cytotoxicity control for HCV core dimerization inhibitor project, late-stage follow-up (AID 485280)).
With COc1ccc(NC(=O)CN(C)C(=O)c2cc3c(s2)CCC3)cc1 the CC50 was 123 µM (inactive). O=C(/C=C/c1ccc(Br)o1)OCc1nc2ccsc2c(=O)[nH]1 was tested, and the CC50 was 163 µM (inactive). In the case of CCN(CC(=O)Nc1c(F)cccc1F)C(=O)/C=C/c1ccc2ccccc2n1, the CC50 is reported as 148 µM (inactive). For COCCN(C(=O)COC(=O)c1cc2c(s1)CCC2)c1c(N)n(Cc2ccccc2)c(=O)[nH]c1=O, the CC50 was 141 µM (inactive). For Cc1ccc(Cc2c(C)nc3nc(SCC(=O)NCCCN4CCCCCC4)nn3c2C)cc1, the CC50 was 27.4 µM (inactive). For CCCCCC#CCC#CCC#CCC#CCCCC(=O)O, the CC50 was 179 µM (inactive). Cc1ccccc1N1C(=O)/C(=C/c2ccco2)C(=O)NC1=S was tested, and the CC50 was 143 µM (inactive).
